# Measured values: patent US9546179B2, “Heterocycle amido alkyloxy substituted quinazoline derivative and use thereof” (priority 2011, dated 2017)
# Target: T1, receptor tyrosine kinase EGFR (Homo sapiens, UniProt P00533)
# T1 construct: purchased Shanghai 3bio Technology Co., Ltd. Lot No. 4018780925
# Assay: Inhibitory effect on receptor tyrosine kinase EGFR (ELISA, Poly(Glu, Tyr)4:1, PY99 antibody)
# Assay type: biochemical
# Conditions: ATP 4 μM, 1 hour at 37° C.
# Description: Poly(Glu, Tyr)4:1 was diluted into 100 μg/ml by PBS without potassium. Enzyme label plate was coated with 37 μl/well at 37° C. overnight,
# The liquid in the wells was removed. The plate was rinsed by T-PBS for 5 minutes, and dried at 37° C. after repeated 3 times.
# The testing sample was diluted to the concentration concerned by reaction buffer solution, and added into the wells of the coated enzyme label plate. The concentration diluted should realize 1.0000 μg/ml, 0.1250 μg/ml, 0.0156 μg/ml, 0.00195 μg/ml and 0.00024 μg/ml in the 100 μl reaction.
# Adding in ATP solution (4 μM of final concentration) diluted by reaction buffer solution,
# Finally, the tyrosine kinase diluted by reaction buffer solution was added, and forming the reaction with 100 μl total volume.
# Meanwhile, negative control wells and enzyme-free control wells were prepared. The reaction was kept in the dark wet box for 1 hour at 37° C. The plate was rinsed by T-PBS for three times after the reaction ended, and blocked by 1% BSA […] for 30 min, and then, PY99 antibody (1:1000 diluted by 0.05% PBST with 1% BSA) was added in 100 μl/well. After incubated at 37° C. for 30 minutes, the plate was rinsed by T-PBS for three times, and the goat anti-mouse IgG marked with HRP (1 mg/ml 1:1000 diluted by 0.05% PBST with 1% BSA) was then added in 100 μl/well. After incubated at 37° C. for 30 minutes, the plate was rinsed by T-PBS for three times.
# Colorimetric solution OPD was added in 100 μl/well for 20 minutes' reaction in the dark side at the room temperature. Colorimetric substrate solution OPD was the solution of 0.1 mol/L citric acid-disodium hydrogen phosphate buffer (pH 5.0) with 20 mmol/L OPD and 12 mmol/L H2O2 (freshly prepared when using).
# 50 μl of 2M H2SO4 (2 mol/L sulfuric acid containing 0.1 mol/L sodium sulfate) was added in to terminate the reaction, and the A492 value was read with adjustable wavelength micro late enzyme-labeling instrument VERSAmax.
# The inhibition rate of samples is calculated by the following formula: […]
# T1 sequence (P00533 25-1210): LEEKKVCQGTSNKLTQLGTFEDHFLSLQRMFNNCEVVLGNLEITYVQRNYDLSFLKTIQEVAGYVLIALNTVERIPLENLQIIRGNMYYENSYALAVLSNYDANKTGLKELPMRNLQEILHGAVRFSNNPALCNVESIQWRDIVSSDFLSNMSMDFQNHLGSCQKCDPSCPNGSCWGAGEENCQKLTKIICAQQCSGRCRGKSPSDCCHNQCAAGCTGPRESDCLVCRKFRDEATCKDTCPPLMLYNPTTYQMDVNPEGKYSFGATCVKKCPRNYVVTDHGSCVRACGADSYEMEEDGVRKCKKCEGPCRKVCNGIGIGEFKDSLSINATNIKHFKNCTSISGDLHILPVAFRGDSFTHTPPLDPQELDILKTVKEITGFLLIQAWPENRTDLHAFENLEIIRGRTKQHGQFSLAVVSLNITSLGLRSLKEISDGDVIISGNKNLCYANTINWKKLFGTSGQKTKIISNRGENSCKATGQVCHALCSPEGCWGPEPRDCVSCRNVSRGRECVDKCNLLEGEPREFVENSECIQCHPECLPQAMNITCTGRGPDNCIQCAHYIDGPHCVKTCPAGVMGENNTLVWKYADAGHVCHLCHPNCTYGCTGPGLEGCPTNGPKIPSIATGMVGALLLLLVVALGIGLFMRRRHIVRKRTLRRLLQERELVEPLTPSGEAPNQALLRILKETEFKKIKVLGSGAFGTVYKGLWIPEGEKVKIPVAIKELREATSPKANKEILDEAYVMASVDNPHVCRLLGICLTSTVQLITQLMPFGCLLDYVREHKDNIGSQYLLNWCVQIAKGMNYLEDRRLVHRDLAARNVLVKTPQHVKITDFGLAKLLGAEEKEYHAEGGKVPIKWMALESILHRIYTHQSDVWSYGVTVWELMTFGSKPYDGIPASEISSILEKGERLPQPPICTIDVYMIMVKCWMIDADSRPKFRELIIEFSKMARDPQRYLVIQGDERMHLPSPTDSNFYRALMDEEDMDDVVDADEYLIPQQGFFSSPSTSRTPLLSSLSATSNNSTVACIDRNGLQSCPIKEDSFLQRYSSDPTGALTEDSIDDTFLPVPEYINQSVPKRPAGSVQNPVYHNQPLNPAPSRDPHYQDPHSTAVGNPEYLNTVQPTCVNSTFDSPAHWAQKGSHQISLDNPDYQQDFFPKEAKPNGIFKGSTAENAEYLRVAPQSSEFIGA
row,Structure (SMILES),IC50 [nM]
1,"COc1cc2ncnc(Nc3ccc(F)c(Cl)c3)c2cc1OCCN1CCC2(CC1)CNC(=O)C2 [Example 63, 4-(3′-chloro-4′-fluorophenylamino)-6-[2-(2,8-diazaspiro[4.5]decane-3-ketone-8-yl)-oxethyl]-7-methoxyquinazoline]",100 to 1000
2,"COc1cc2ncnc(Nc3cc(Cl)ccc3F)c2cc1OCCCN1CCC2(CCN(C)C2)C1 (stereo not drawn) [Example 64, 4-(5′-chloro-22′-fluorophenylamino)-6-[3-(7-methyl-2,7-diazaspiro[4.4]nonane-2-yl)-propoxy]-7-methoxyquinazoline]",10 to 100
3,COc1cc2ncnc(Nc3cc(Cl)ccc3F)c2cc1OCCCN1CCC2(COC2)C1 [Example 65],10 to 100
4,"C#Cc1cccc(Nc2ncnc3cc(OC)c(OCCCN4CCC5(CCN(C)C5)C4)cc23)c1 (stereo not drawn) [Example 68, 4-(3′-ethynylphenylamino)-6-[3-(7-methyl-2,7-diazaspiro[4.4]nonyl)-propoxy]-7-methoxyquinazoline]",10 to 100
5,"C#Cc1cccc(Nc2ncnc3cc(OC)c(OCCCN4CCC5(CCNC5=O)C4)cc23)c1 (stereo not drawn) [Example 70, 4-(3′-ethynylphenylamino)-6-[3-(2,7-diazaspiro[4.4]-nonane-1-ketone-7-yl)-propoxy]-7-methoxyquinazoline]",10 to 100
6,"C#Cc1cccc(Nc2ncnc3cc(OC)c(OCCCN4CCC5(CCN(C)C5=O)C4)cc23)c1 (stereo not drawn) [Example 71, 4-(3′-ethynylphenylamino)-6-[3-(2-methyl-2,7-diazaspiro[4.4]-nonane-1-ketone-7-yl)-propoxy]-7-methoxyquinazoline]",10 to 100
7,"C#Cc1cccc(Nc2ncnc3cc(OC)c(OCCCN4CCC5(CCNC5=O)CC4)cc23)c1 [Example 72, 4-(3′-ethynylphenylamino)-6-[3-(2,8-diazaspiro[4.5]decane-1-ketone-8-yl)-propoxy]-7-methoxyquinazoline]",10 to 100
8,"C#Cc1cccc(Nc2ncnc3cc(OC)c(OCCCN4CCC5(CC4)CC(=O)N(C)C5)cc23)c1 [Example 73, 4-(3′-ethynylphenylamino)-6-[3-(2-methyl-2,8-diazaspiro[4.5]decane-3-ketone-8-yl)-propoxy]-7-methoxyquinazoline]",10 to 100
9,"C#Cc1cccc(Nc2ncnc3cc(OC)c(OCCCN4CCC5(CCC(=O)N5)CC4)cc23)c1 [Example 74, 4-(3′-ethynylphenylamino)-6-[3-(1,8-diazaspiro[4.5]decane-2-ketone-8-yl)-propoxy]-7-methoxyquinazoline]",10 to 100
10,"C#Cc1cccc(Nc2ncnc3cc(OC)c(OCCCN4CCC5(COC5)C4)cc23)c1 [Example 75, 4-(3′-ethynylphenylamino)-6-[3-(2-oxa-6-azaspiro[3.4]octane-6-yl)-propoxy]-7-methoxyquinazoline]",10 to 100
11,"COc1cc2ncnc(Nc3ccc(F)c(Cl)c3)c2cc1OCCCN1CCC2(CCN(C)C2)C1 (stereo not drawn) [Example 76, 4-(3′-chloro-4′-fluorophenylamino)-6-[3-(7-methyl-2,7-diazaspiro[4.4]nonane-2-yl)-propoxy]-7-methoxyquinazoline]",10 to 100
12,"COc1cc2ncnc(Nc3ccc(F)c(Cl)c3)c2cc1OCCCN1CCC2(CCCN(C(=O)OC(C)(C)C)C2)C1 (stereo not drawn) [Example 77, 4-(3′-chloro-4′-4-fluorophenylamino)-6-[3-(7-tertbutyloxycarbonyl-2,7-diazaspiro[4.5]decane-2-yl)-propoxy]-7-methoxyquinazoline]",> 1000
13,COc1cc2ncnc(Nc3ccc(F)c(Cl)c3)c2cc1OCCCN1CCC2(CC1)CNC(=O)C2 [Example 79],0.1 to 10
14,"COc1cc2ncnc(Nc3ccc(F)c(Cl)c3)c2cc1OCCCN1CCC2(CCNC2=O)C1 (stereo not drawn) [Example 80, 4-(3′-chloro-4′-fluorophenylamino)-6-[3-(2,7-diazaspiro[4.4]-nonane-1-ketone-7-yl)-propoxy]-7-methoxyquinazoline]",0.1 to 10
15,"COc1cc2ncnc(Nc3ccc(F)c(Cl)c3)c2cc1OCCCN1CCC2(CCN(C)C2=O)C1 (stereo not drawn) [Example 81, 4-(3′-chloro-4′-fluorophenylamino)-6-[3-(2-methyl-2,7-diazaspiro[4.4]-nonane-1-ketone-7-yl)-propoxy]-7-methoxyquinazoline]",10 to 100
16,"COc1cc2ncnc(Nc3ccc(F)c(Cl)c3)c2cc1OCCCN1CCC2(CCNC2=O)CC1 [Example 82, 4-(3′-chloro-4′-fluorophenylamino)-6-[3-(2,8-diazaspiro[4.5]decane-1-ketone-8-yl)-propoxy]-7-methoxyquinazoline]",10 to 100
17,"COc1cc2ncnc(Nc3ccc(F)c(Cl)c3)c2cc1OCCCN1CCC2(CC1)CC(=O)N(C)C2 [Example 83, 4-(3′-chloro-4′-fluorophenylamino)-6-[3-(2-methyl-2,8-diazaspiro[4.5]decane-3-ketone-8-yl)-propoxy]-7-methoxyquinazoline]",0.1 to 10
18,"COc1cc2ncnc(Nc3ccc(F)c(Cl)c3)c2cc1OCCCN1CCC2(CCC(=O)N2)CC1 [Example 84, 4-(3′-chloro-4′-fluorophenylamino)-6-[3-(1,8-diazaspiro[4.5]decane-2-ketone-8-yl)-propoxy]-7-methoxyquinazoline]",10 to 100
19,COc1cc2ncnc(Nc3ccc(F)c(Cl)c3)c2cc1OCCCN1CCC2(CC1)CCN(C)C2=O [Example 85],10 to 100
20,"COc1cc2ncnc(Nc3ccc(F)c(Cl)c3)c2cc1OCCCN1CC2(CNC(=O)C2)C1 [Example 86, 4-(3′-chloro-4′-fluorophenylamino)-6-[3-(2,6-diazaspiro[3.4]octane-7-ketone-2-yl)-propoxy]-7-methoxyquinazoline]",10 to 100
21,"COc1cc2ncnc(Nc3ccc(F)c(Cl)c3)c2cc1OCCCN1CCC2(CC1)CNC(=O)O2 [Example 87, 4-(3′-chloro-4′-fluorophenylamino)-6-[3-(1-oxa-3,8-diazaspiro[4.5]decane-2-ketone-8-yl)-propoxy]-7-methoxyquinazoline]",10 to 100
22,"COc1cc2ncnc(Nc3ccc(F)c(Cl)c3)c2cc1OCCCN1C[C@@H]2CN(C(=O)OC(C)(C)C)C[C@@H]2C1 [Example 88, 4-(3′-chloro-4′-fluorophenylamino)-6-[3-(5-tertbutyloxycarbonyl-hexahydropyrrolo[3,4-c]pyrrole-2-yl)-propoxy]-7-methoxyquinazoline]",> 1000
23,"COc1cc2ncnc(Nc3ccc(F)c(Cl)c3)c2cc1OCCCN1CCC2(C1)CN(C)C(=O)O2 (stereo not drawn) [Example 89, 4-(3′-chloro-4′-fluorophenylamino)-6-[3-[3-methyl-1-oxa-3,7-diazaspiro[4.4]nonane-2-ketone-7-yl)-propoxy]-7-methoxyquinazoline]",10 to 100
24,"COc1cc2ncnc(Nc3ccc(F)c(Cl)c3)c2cc1OCCCN1CC2(CNC(=O)O2)C1 [Example 90, 4-(3′-chloro-4′-fluorophenylamino)-6-[3-(5-oxa-2,7-diazaspiro[3.4]octane-6-ketone-2-yl)-propoxy]-7-methoxyquinazoline]",0.1 to 10
25,"COc1cc2ncnc(Nc3ccc(F)c(Cl)c3)c2cc1OCCCN1CC2(C1)CN(C)C(=O)O2 [Example 91, 4-(3′-chloro-4′-fluorophenylamino)-6-[3-(7-methyl-5-oxa-2,7-diazaspiro[3.4]octane-6-ketone-2-yl)-propoxy]-7-methoxyquinazoline]",10 to 100
26,"COc1cc2ncnc(Nc3ccc(F)c(Cl)c3)c2cc1OCCCN1CCC2(CCN(C(C)=O)C2)C1 (stereo not drawn) [Example 92, 4-(3′-chloro-4′-fluorophenylamino)-6-[3-(7-acetyl-2,7-diazaspiro[4.4]-nonane-2-yl)-propoxy]-7-methoxyquinazoline]",10 to 100
27,"COc1cc2ncnc(Nc3ccc(F)c(Cl)c3)c2cc1OCCCN1CC2CCC(C1)O2 [Example 93, 4-(3′-chloro-4′-fluorophenylamino)-6-[3-(8-oxa-3-aza-azabicyclo[3.2.1]octane-3-yl)-propoxy]-7-methoxyquinazoline]",100 to 1000
28,"COc1cc2ncnc(Nc3ccc(F)c(Cl)c3)c2cc1OCCCN1CCC2(CC1)CNC(=O)C2 [Example 94, 4-(3′-chloro-4′-fluorophenylamino)-6-[3-(2,8-diazaspiro[4.5]decane-3-ketone-8-yl)-propoxy]-7-methoxyquinazoline]",10 to 100
29,"[2H]C([2H])([2H])Oc1cc2ncnc(Nc3ccc(F)c(Cl)c3)c2cc1OCCCN1CCC2(CC1)CNC(=O)O2 [Example 95, 4-(3′-chloro-4′-fluorophenylamino)-6-[3-(1-oxa-3,8-diazaspiro[4.5]decane-2-ketone-8-yl)-propoxy]-7-deuterated methoxyquinazoline]",10 to 100
30,"[2H]C([2H])([2H])Oc1cc2ncnc(Nc3ccc(F)c(Cl)c3)c2cc1OCCCN1CCC2(C1)CN(C)C(=O)O2 (stereo not drawn) [Example 96, 4-(3′-chloro-4′-fluorophenylamino)-6-[3-(3-methyl-1-oxa-3,7-diazaspiro[4.4]nonane-2-ketone-7-yl)-propoxy]-7-deuterated methoxyquinazoline]",10 to 100
